Measured values published in publication PMC9863987, “Identification of Aryl Polyamines Derivatives as Anti-Trypanosoma cruzi Agents Targeting Iron Superoxide Dismutase” (Pharmaceutics, 2022).

What was measured:
[1] = tested on: T. cruzi Tulahuen strain trypomastigotes; test: Screening against bloodstream trypomastigotes, Tulahuen strain (resazurin); format: cell-based, Trypanosoma cruzi
[2] = tested on: T. cruzi SN3 strain trypomastigotes; test: Screening against bloodstream trypomastigotes, SN3 strain (resazurin); format: cell-based, Trypanosoma cruzi
[3] = tested on: Trypanosoma cruzi epimastigotes; test: Excreted metabolites by 1H NMR; format: cell-based; conditions: epimastigotes at IC25 concentration, 72 h; succinate and pyruvate most increased
Protocol: 5 × 10^5 mL^−1 epimastigotes culture medium were treated by adding the compounds at IC25 concentrations in 25 cm^2 cell culture flasks for 72 h. Untreated controls were also included in triplicate. Cultures were then centrifuged and filtered, and the metabolites of the supernatants were measured by ^1H NMR (VARIAN DIRECT DRIVE 500 MHz […]) with AutoX probe, D2O as solvent and 2,2-dimethyl-2-silapentane-5-sulphonate as the reference signal. Analyses were conducted as previously reported.

[4] = tested on: Vero cells; test: Cytotoxicity test on mammalian Vero cells (resazurin); format: cell-based; conditions: Chlorocebus sabaeus, 48 h treatment + 24 h resazurin, mean of three ± SD, read-out: Toxicity IC50 Vero Cell
Protocol: Cytotoxicity against mammalian Vero cells (EACC No. 84113001) was tested as previously reported. In brief, 1.25 × 10^4 Vero cells·mL^−1, cultured at 37 °C, were treated by adding the compounds in serial dilutions from 400 to 1 µM in 96-well plates (200 µL·well^−1) for 48 h. BZN and untreated controls were also included in triplicate. Later, 20 μL of resazurin sodium salt (Sigma-Aldrich) was added, and the plates were incubated for another 24 h. Finally, cell viability was determined following the same procedure as described to assess the trypanocidal activity in the epimastigotes.

[5] = tested on: T. cruzi Arequipa strain; test: Nested amastigotes detection by PCR in nine target organs/tissues of infected BALB/c mice; format: in vivo, Trypanosoma cruzi; conditions: oral 20 mg/Kg/day for 5 days
Protocol: (§1) Infection was carried out by intraperitoneal inoculation of 5 × 10^5 BTs of T. cruzi Arequipa strain per mouse in 0.2 mL PBS [26]. The infection was monitored and on the 10th day post-infection (dpi), when BTs were visible in the bloodstream, the infection was confirmed.
(§2) Mice were divided into four groups (n = 3 per group): 0, negative control group (uninfected and untreated mice); I, positive control group (infected and untreated mice); II, BZN group (mice infected and treated with BZN); III, 15 group (mice infected and treated with 15).
(§3) The treatment for mice treated in the acute and chronic CD began when the infection was confirmed (10th dpi) and was stablished that the animals had entered the chronic CD (75th dpi), respectively (Scheme 1). Compound 15 and BZN were orally administered for 5 consecutive days at a dose of 20 mg·Kg^−1·day^−1.
After CP-induced immunosuppression, the mice were euthanised using CO2 by exsanguination via cardiac puncture, and blood was collected. Then, 9 target organs/tissues were harvested: adipose, bone marrow, brain, oesophagus, heart, lung, muscle, spleen, and stomach. These organs/tissues were perfused with pre-warmed PBS to avoid contamination with BTs, and stored at −80 °C. In addition, spleens were weighed to assess splenomegaly.
DNA extraction of the target organs/tissues was performed using Wizard® Genomic DNA Purification Kit. DNA was subjected to amplification by PCR based on the sequence of the T. cruzi splice leader (SL) intergenic region using two published primers (TC and TC1) that allow the amplification of a 300 base pairs fragment in different biological samples. […]

[6] = Clinical analysis of heart, kidney and liver markers in serum of treated mice; format: in vivo, BALB/c mice; conditions: n = 3
Protocol: as §1, §2, §3
Blood samples were collected in several dpi (Scheme 1) and processed according the method previously reported to obtain serum. Serum samples were then aliquoted to ELISA test and clinical analysis.
Heart, kidney and liver markers were measured from blood in several dpi (Scheme 1) with Cromakit® as previously reported. Mean and standard deviations were calculated using the levels measured for different populations of sera (n = 15, n = 3), and the confidence interval were also calculated based on a confidence level of 95% (100 × (1 − α) = 100 × (1 − 0.05)).

[7] = tested on: T. cruzi Tulahuen strain amastigotes; test: Screening against intracellular amastigotes in Vero cells, Tulahuen strain (Giemsa counting); format: cell-based, Trypanosoma cruzi
Protocol: TINF/CH/1956/Tulahuen, DTU VI [26]—were grown at 28 °C in Gibco® RPMI 1640 Medium supplemented as previously reported, and used for in vitro screening. Trypanocidal activity against amastigotes was tested as previously reported. In brief, bloodstream trypomastigotes (BTs), obtained by cardiac puncture from infected BALB/c mice, were used to infect 1 × 10^4 Vero cells·well^−1 in 24-well plates with rounded coverslips at a multiplicity of infection (MOI) ratio of 10:1. After 24 h of infection, non-internalized trypomastigotes were washed and the infected cells were treated by adding the compounds in serial dilutions from 50 to 0.5 µM in […] for 72 h. BZN and untreated growth controls were also included in triplicate. Later, the number of amastigotes and infected cells were determined in Giemsa stained preparations by analysing 500 host cells randomly distributed in microscopic fields. The trypanocidal activity was expressed as the IC50 using GraphPad Prism 6 software (version 6.07).

[8] = tested on: T. cruzi Arequipa strain; test: Infection reactivation by cyclophosphamide immunosuppression in infected BALB/c mice; format: in vivo, Trypanosoma cruzi; conditions: oral 20 mg/Kg/day for 5 days, related to control group
[9] = IC50 Vero cells/IC50 trypomastigotes
[10] = treatment in the acute infection
[11] = treatment in acute phase, 16th dpi (2 days after treatment)
[12] = treatment in acute phase, necropsy day
[13] = treatment in chronic phase, 81th dpi (2 days after treatment)
[14] = treatment in chronic phase, necropsy day

SMILES: c1cc2nc(c1)CNCCN(CCNCc1ccc3ccc4ccc(CNCCN5CCNCc6cccc(n6)CNCC5)nc4c3n1)CCNC2 [Compound 15]
- Selectivity Index T. cruzi Tulahuen Strain T [1, 9]: 83.6
- IC50 ([1]; Trypanosoma cruzi, TULAHUEN, trypomastigotes, 24 h + 4 h resazurin, mean of three ± SD): 7.8 ± 0.7 µM
- Selectivity Index T. cruzi SN3 Strain T [2, 9]: 62.0
- IC50 ([2]; Trypanosoma cruzi, trypomastigotes, 24 h + 4 h resazurin, mean of three ± SD): 10.6 ± 0.9 µM
- excretion of catabolites compared with untreated parasites [3]: notably increased
- CC50 [4]: 655 ± 51.9 µM
- clearance of nested parasites in target organs/tissues (parasite-free organs/tissues, PCR) [5, 10]: 67%
- clearance of nested parasites in target organs/tissues (parasite-free organs/tissues, PCR) ([5]; treatment in the chronic infection): 89%
- ALP, variation over the range [6, 11]: = (variation ≤ 10%)
- ALT/GPT, variation over the range [6, 11]: ++ (20-30% increase/decrease over the range)
- AST/GOT, variation over the range [6, 11]: ++ (20-30% increase/decrease over the range)
- CK-MB, variation over the range [6, 11]: -- (20-30% increase/decrease over the range)
- LDH, variation over the range [6, 11]: = (variation ≤ 10%)
- Total bilirubin, variation over the range [6, 11]: + (10-20% increase/decrease over the range)
- Urea, variation over the range [6, 11]: - (10-20% increase/decrease over the range)
- Uric acid, variation over the range [6, 11]: -- (20-30% increase/decrease over the range)
- ALP, variation over the range [6, 12]: = (variation ≤ 10%)
- ALT/GPT, variation over the range [6, 12]: + (10-20% increase/decrease over the range)
- AST/GOT, variation over the range [6, 12]: + (10-20% increase/decrease over the range)
- CK-MB, variation over the range [6, 12]: = (variation ≤ 10%)
- LDH, variation over the range [6, 12]: = (variation ≤ 10%)
- Total bilirubin, variation over the range [6, 12]: + (10-20% increase/decrease over the range)
- Urea, variation over the range [6, 12]: = (variation ≤ 10%)
- Uric acid, variation over the range [6, 12]: = (variation ≤ 10%)
- ALP, variation over the range [6, 13]: = (variation ≤ 10%)
- ALT/GPT, variation over the range [6, 13]: + (10-20% increase/decrease over the range)
- AST/GOT, variation over the range [6, 13]: + (10-20% increase/decrease over the range)
- CK-MB, variation over the range [6, 13]: - (10-20% increase/decrease over the range)
- LDH, variation over the range [6, 13]: = (variation ≤ 10%)
- Total bilirubin, variation over the range [6, 13]: ++ (20-30% increase/decrease over the range)
- Urea, variation over the range [6, 13]: -- (20-30% increase/decrease over the range)
- Uric acid, variation over the range [6, 13]: --- (30-40% increase/decrease over the range)
- ALP, variation over the range [6, 14]: = (variation ≤ 10%)
- ALT/GPT, variation over the range [6, 14]: = (variation ≤ 10%)
- AST/GOT, variation over the range [6, 14]: = (variation ≤ 10%)
- CK-MB, variation over the range [6, 14]: = (variation ≤ 10%)
- LDH, variation over the range [6, 14]: = (variation ≤ 10%)
- Total bilirubin, variation over the range [6, 14]: + (10-20% increase/decrease over the range)
- Urea, variation over the range [6, 14]: - (10-20% increase/decrease over the range)
- Uric acid, variation over the range [6, 14]: - (10-20% increase/decrease over the range)
- Selectivity Index T. cruzi Tulahuen Strain A ([7]; IC50 Vero cells/IC50 amastigotes): 96.3
- IC50 ([7]; Trypanosoma cruzi, TULAHUEN, amastigotes in Vero cells, 72 h, mean of three ± SD): 6.8 ± 0.7 µM
- reactivation of parasitaemia after immunosuppression [8, 10]: 60%
- reactivation of parasitaemia after immunosuppression ([8]; treatment in the chronic infection (from 75th dpi)): 26%
